The source made the active and inactive calls. How the calls were made is not given here.
Test system: CCRIS mutagenicity, Ames/micronucleus/aberration tests
Experiment: CCRIS mutagenicity studies
[1] = Test System: AMES SALMONELLA TYPHIMURIUM, Strain/Indicator: TA100, Metabolic Activation: NONE, Method: PREINCUBATION

## Nc1ccc([N+](=O)[O-])c(N)c1
Test System: AMES SALMONELLA TYPHIMURIUM, Strain/Indicator: TA97, Metabolic Activation: HAMSTER, LIVER, S-9, AROCLOR 1254 (10%), Method: PREINCUBATION
  mutagenic call: inactive; negative
Test System: AMES SALMONELLA TYPHIMURIUM, Strain/Indicator: TA97, Metabolic Activation: NONE, Method: PREINCUBATION
  mutagenic call: inactive; negative
Test System: AMES SALMONELLA TYPHIMURIUM, Strain/Indicator: TA97, Metabolic Activation: RAT, LIVER, S-9, AROCLOR 1254 (5, 10 OR 30%), Method: PREINCUBATION
  mutagenic call: inactive; negative
Test System: AMES SALMONELLA TYPHIMURIUM, Strain/Indicator: TA98, Metabolic Activation: HAMSTER, LIVER, S-9, AROCLOR 1254 (10%), Method: PREINCUBATION
  mutagenic call: active; positive
Test System: AMES SALMONELLA TYPHIMURIUM, Strain/Indicator: TA98, Metabolic Activation: NONE, Method: PREINCUBATION
  mutagenic call: active; positive
Test System: AMES SALMONELLA TYPHIMURIUM, Strain/Indicator: TA98, Metabolic Activation: RAT, LIVER, S-9, AROCLOR 1254 (10%), Method: PREINCUBATION
  mutagenic call: active; positive
Test System: AMES SALMONELLA TYPHIMURIUM, Strain/Indicator: TA100, Metabolic Activation: HAMSTER, LIVER, S-9, AROCLOR 1254 (10%), Method: PREINCUBATION
  mutagenic call: inactive; negative
[1]
  mutagenic call: inactive; negative
Test System: AMES SALMONELLA TYPHIMURIUM, Strain/Indicator: TA100, Metabolic Activation: RAT, LIVER, S-9, AROCLOR 1254 (10%), Method: PREINCUBATION
  mutagenic call: inactive; negative
Test System: AMES SALMONELLA TYPHIMURIUM, Strain/Indicator: TA1535, Metabolic Activation: HAMSTER, LIVER, S-9, AROCLOR 1254 (10%), Method: PREINCUBATION
  mutagenic call: inactive; negative
Test System: AMES SALMONELLA TYPHIMURIUM, Strain/Indicator: TA1535, Metabolic Activation: NONE, Method: PREINCUBATION
  mutagenic call: inactive; negative
Test System: AMES SALMONELLA TYPHIMURIUM, Strain/Indicator: TA1535, Metabolic Activation: RAT, LIVER, S-9, AROCLOR 1254 (10%), Method: PREINCUBATION
  mutagenic call: inactive; negative
Test System: AMES SALMONELLA TYPHIMURIUM, Strain/Indicator: TA1537, Metabolic Activation: HAMSTER, LIVER, S-9, AROCLOR 1254 (10%), Method: PREINCUBATION
  mutagenic call: active; positive
Test System: AMES SALMONELLA TYPHIMURIUM, Strain/Indicator: TA1537, Metabolic Activation: NONE, Method: PREINCUBATION
  mutagenic call: inactive; negative
Test System: AMES SALMONELLA TYPHIMURIUM, Strain/Indicator: TA1537, Metabolic Activation: RAT, LIVER, S-9, AROCLOR 1254 (10%), Method: PREINCUBATION
  mutagenic call: inactive; negative

## CN=NC(C)(C)OO
Test System: AMES SALMONELLA TYPHIMURIUM, Strain/Indicator: TA100, Metabolic Activation: NONE
  mutagenic call: active; positive
Test System: AMES SALMONELLA TYPHIMURIUM, Strain/Indicator: TA102, Metabolic Activation: NONE
  mutagenic call: active; positive
Test System: AMES SALMONELLA TYPHIMURIUM, Strain/Indicator: TA1535, Metabolic Activation: NONE
  mutagenic call: active; positive
Test System: E. COLI, Strain/Indicator: WP2 (HCR-), Metabolic Activation: NONE
  mutagenic call: active; positive

## Cc1cc2c(cc1N=O)OCO2
[1]
  mutagenic call: active; positive
Test System: AMES SALMONELLA TYPHIMURIUM, Strain/Indicator: TA100, Metabolic Activation: RAT, LIVER, S-9, PHENOBARBITAL AND 5,6-BENZOFLAVONE, Method: PREINCUBATION
  mutagenic call: active; positive

— PubChem BioAssay AID1259407 (Chemical Carcinogenesis Research Information System (CCRIS), 2018)
